# Key:
# [1] = system: male C57BL6J mice; experiment: Doxorubicin-induced cardiomyopathy model mice (DOX mouse): body weight, echocardiography, NKT cells and inflammatory cytokines in myocardium; format: in vivo
# Description: Doxorubicin (6 mg/kg) was intravenously administered to male
# C57BL6J mice aged 10 to 11 weeks from the tail vein once every two days. That is, in a case where the day when doxorubicin was initially administered was set to Day 0, doxorubicin was injected on Day 2 and Day 4 (total of 3 times of administration). At each time point of Day 0, 7, 14, 21, and 28, weight measurement and echocardiography were performed to evaluate the amounts of NKT cells and the expression levels of inflammatory cytokines in the myocardium.
# [2] = system: mice with DOX cardiomyopathy; experiment: Effect of αGalCer on DOX mice: cardiac function and inflammatory cytokines; format: in vivo; conditions: for apoptosis of myocardial cells (TUNEL staining) / left ventricular end-systolic dimension (LVDs) / left ventricular fractional shortening rate (FS): DOX group or GalCer+DOX group; for WH/TL and LV/TL: DOX group vs Control, GalCer+DOX group vs DOX group
# Description: 10-week-old male C57BL/6J mice were divided into four groups of a Control group, a GalCer group, a DOX group, and a GalCer+DOX group. Hereinafter, the administration method will be described by setting the day when doxorubicin was initially administered as Day 0 (FIG. 4(a)).
# PBS (phosphate buffered saline) was intraperitoneally administered (ip) and physiological saline was intravenously administered to the mice of the Control group on Day-7 (7 days before Day 0).
# αGalCer (0.1 μg/g) was intraperitoneally administered (ip) to the mice of the GalCer group on Day-7, and physiological saline was intravenously administered thereto on Days 0, 2, and 4.
# PBS was intraperitoneally administered (ip) to the mice of the DOX group on Day-7, and doxorubicin (6 mg/kg) was intravenously administered thereto on Days 0, 2, and 4.
# αGalCer (0.1 μg/g) was intraperitoneally administered (ip) to the mice of the Galfer+DOX group on Day-7, and doxorubicin (6 mg/kg) was intravenously administered thereto on Days 0, 2, and 4.
# The body weight, the blood pressure, the echocardiogram, the organ weight, the expression level of Vα14Jα18, the cardiac function, and inflammatory cytokines of each mouse at the time point of Day 14 were evaluated. Echocardiography was performed by anesthetizing mice with pentobarbital using an ultrasonic recording device EUB-8000 (trade name of Hitachi Medical Corporation). The left ventricular end-diastolic dimension and the left ventricular systolic end-systolic dimension were measured from the echo image, and the left ventricular fractional shortening rate serving as an index of the left ventricular contractility was calculated by an expression of “(left ventricular end-diastolic dimension—left ventricular systolic end-systolic dimension)left ventricular end-diastolic dimension×100”.
# [3] = system: Balb/c mice; experiment: Difference between α-GalCer administration and α-GalCer/DC administration (western blotting of Stat1, Stat6); format: in vivo; conditions: only α-GalCer administered, 4 days
# Description: The differences in expression levels of proteins Stat1 and Stat6 and degrees of phosphorylation in a case where only α-GalCer was administered and in a case where DC was administered as a carrier (that is, α-GalCer/DC was administered, the number of administered cells: 3×10^6) were evaluated by western blotting.
# In the test, α-GalCer alone or α-GalCer/DC was administered to the Balb/c mice, and the expression level of each protein in the myocardium 4 days after the administration was evaluated by western blotting.
# [4] = system: mice with DOX cardiomyopathy; experiment: Effect of αGalCer on DOX mice: cardiac function and inflammatory cytokines; format: in vivo; conditions: Days 7 and 14
# [5] = system: humans; conditions: systemically administered to humans; cited from earlier work
# [6] = system: cultured myocardial cells; experiment: IFN-γ stimulation of cultured myocardial cells, pPLN and p-Stat1 (SDS-PAGE); format: cell-based
# Description: The cultured myocardial cells were stimulated by adding IFN-γ solutions with three different concentrations (1, 10, and 50 ng/mL), and changes in concentration of pPLN were evaluated by ^-the SDS-PAGE method.
# The cultured myocardial cells were stimulated by adding 50 ng/mL of an IFN-γ solution, and a change in concentration of pPLN over time was evaluated by the SDS-PAGE method.
# [7] = system: primary cultured myocardial fibroblasts; experiment: Fibrosis gene expression in myocardial fibroblasts after IFNγ, IL4 or IL10; format: cell-based; conditions: 1, 10, and 50 ng/mL, vs non-administration group (Veh)
# Description: The changes in expression levels of genes (Ctgf Col1a, and Col3a) involved in fibrosis after IFNγ, IL4, or IL10 was administered to primary cultured myocardial fibroblasts were evaluated in order to investigate the mechanism by which the TGF β-Smad signaling system was inhibited due to the administration of α-GalCer/DC (number of administered cells: 3×10^6).
# FIG. 38 is a graph showing changes in the expression levels of genes (Ctgf, Col1a, and Col3a) after the administration of IFNγ, IL4, or IL10 to myocardial fibroblasts. IFNγ, IL4, and IL10 were respectively administered at concentrations of 1, 10, and 50 ng/mL. Rps18 was used as an intrinsic control. “Veh” in the graphs represents a non-administration group (Vehicle).
# [8] = system: myocardial fibroblasts; experiment: TGFβ administration to myocardial fibroblasts pretreated with IFNγ; format: cell-based
# Description: The changes in expression levels of proteins when TGFβ was administered to myocardial fibroblasts pretreated with IFNγ were evaluated.
# FIG. 39(a) is a western blot showing the expression levels of proteins (pSmad2, Smad2, pSmad3, and Smad3) when TGFβ was administered to myocardial fibroblasts pretreated with IFNγ (n=4). FIG. 39(b) is a graph quantifying the results of FIG. 39(a). The dose of IFNγ used for the pretreatment is 0, 1, 10, or 50 ng/mL, and the dose of TGFβ is 10 ng/mL. In the control group (CTL), neither IFNγ nor TGFβ was administered. Each graph is shown as a relative value in which the phosphorylation ratio (for example, pSmad2Smad2) in the CTL group is set to 1.0. When TGFβ was administered, Smad2 and Smad3 were phosphorylated, and the expression levels of pSmad2 and pSmad3 were increased.
# FIG. 39(c) is a graph showing the expression levels of proteins (Ctgf, Col1a, and Col3a) when TGFβ was administered to myocardial fibroblasts pretreated with IFNγ (n=3 to 6). The dose of IFNγ used for the pretreatment is 0, 1, 10, or 50 ng/mL, and the dose of TGFβ is 10 ng/mL. Each graph is shown as a relative value in which the phosphorylation ratio (for example, pSmad2Smad2) in the CTL group is set to 1.0. In the graph, ** represents P<0.01, which is at a significant level with respect to the expression level of the CTL group.
# [9] = system: primary cultured myocardial fibroblasts; experiment: Stat expression and phosphorylation in myocardial fibroblasts treated with IFNγ, IL4 or IL10; format: cell-based; conditions: vs CTL
# Description: The primary cultured myocardial fibroblasts were treated with IFNγ, IL4, or IL10, and each of the expression levels of proteins (Stat1, Stat6, and Stat3) and the phosphorylation thereof were evaluated.
# [10] = system: offspring rat myocardial cells; experiment: Changes in expression levels of Angpt1 due to cytokine administration; format: cell-based; conditions: vs CTL group
# Description: The changes in the expression levels of an angiogenic factor Angpt1 after administration of IFNγ, IL4, or IL10 to offspring rat myocardial cells were evaluated (each n=3).
# [11] = system: primary cultured offspring rat myocardial cells; experiment: Stat phosphorylation in primary cultured offspring rat myocardial cells after IFNγ, IL4 or IL10; format: cell-based
# Description: IFNγ, IL4 or IL10 was administered to primary cultured offspring rat myocardial cells, and the changes in phosphorylation of proteins (Stat1, Stat6, and Stat3) were evaluated.
# [12] = system: inflammatory cells; myocardial cells; experiment: Cell death after IFNγ administration to inflammatory cells or myocardial cells; format: cell-based
# [13] = doxorubicin 6 mg/kg iv Days 0, 2, 4, Days 0 to 28
# [14] = IFNγ pretreatment 1, 10, or 50 ng/mL, then TGFβ 10 ng/mL
molecule,measurement,setting,value
COc1cccc2c1C(=O)c1c(O)c3c(c(O)c1C2=O)C[C@@](O)(C(=O)CO)C[C@@H]3O[C@H]1C[C@H](N)[C@H](O)[C@H](C)O1 [doxorubicin],expression level of IL-6,"[1]; Day 7, vs Control",significantly increased
same,expression levels of IL-1β and TNF-α,"[1]; Day 7, vs Control",decreased
same,"expression levels of IL-1β, IL-6, and TNF-α","[1]; Day 14, vs doxorubicin non-administration group",all significantly increased
same,expression level of Vα14Jα18,"[1]; Days 7 and 14, Control set to 1",decreased
same,body weight (BW),[1]; [13],reduced after Day 7 tended to gradually increase
same,left ventricular fractional shortening rate (FS),[1]; [13],not improved
same,apoptosis of myocardial cells (TUNEL staining),[2],observed
same,left ventricular end-systolic dimension (LVDs),[2]; Day 14,large
same,left ventricular fractional shortening rate (FS),[2]; Day 14,small
same,WH/TL and LV/TL,[2]; Day 14,significantly reduced
"CCCCCCCCCCCCCCCCCCCCCCCCCC(=O)N[C@@H](CO[C@H]1O[C@H](CO)[C@H](O)[C@H](O)[C@H]1O)[C@H](O)[C@H](O)CCCCCCCCCCCCCC [αGalCer, α-Galactosylceramide]",apoptosis of myocardial cells (TUNEL staining),[2],inhibited
same,left ventricular end-systolic dimension (LVDs),[2]; Day 14,improved to the same extent as the mice in the other groups
same,left ventricular fractional shortening rate (FS),[2]; Day 14,improved to the same extent as the mice in the other groups
same,WH/TL and LV/TL,[2]; Day 14,improved
same,increase of expression level of Vα14Jα18,"[2]; αGalCer 0.1 μg/g ip Day-7, mice with DOX cardiomyopathy, Day 14",approximately 10.6 times
same,activation reaction of Stat1 in the myocardium,[3],extremely weak
same,dose dependence of Stat1 activation,[3],not observed
same,expression level of IFNγ,[4],increased
same,expression levels of inflammatory cytokines,[4],without decreasing
same,liver damage,[5],serious liver damage
"IFNγ: interferon (IFN)-γ, cytokine added to cultured cells",p-Stat1 over time,[6]; IFN-γ 50 ng/mL,increased immediately after the stimulation
same,pPLN over time,[6]; IFN-γ 50 ng/mL,phosphorylated with a slight delay
same,phosphorylation of PLN,"[6]; IFN-γ 1, 10, and 50 ng/mL",phosphorylated
same,"expression levels of genes (Ctgf, Col1a, and Col3a)",[7],significantly decreased in a dose-dependent manner
same,"increase in expression levels of Ctgf, Col1a, and Col3a due to TGFβ",[8]; [14],inhibited in a dose-dependent manner
same,phosphorylation ratio of Smad2 and Smad3,[8]; [14],decreased in a dose-dependent manner
same,expression levels and phosphorylation of Stat1,[9],increased
same,expression levels of Angpt1,[10],increased in a dose-dependent manner
same,"phosphorylation of Stat1 by αGalCer/DC observed in myocardial tissues, reproduction in cultured myocardial cells",[11],reproduced
same,cell death of inflammatory cells,[12],easily caused cell death
TGFβ,"expression levels of Ctgf, Col1a, and Col3a","[8]; TGFβ 10 ng/mL, no pretreatment",increased
same,expression levels of pSmad2 and pSmad3,"[8]; TGFβ 10 ng/mL, no pretreatment",increased
"IFNγ: interferon (IFN)-γ, cytokine added to cultured cells (protein, UniProt P01579 24-161, looked up) Interferon gamma: QDPYVKEAENLKKYFNAGHSDVADNGTLFLGILKNWKEESDRKIMQSQIVSFYFKLFKNFKDDQSIQKSVETIKEDMNVKFFNSNKKKRDDFEKLTNYSVTDLNVQRKAIHELIQVMAELSPAAKTGKRKRSQMLFRG",cell death of myocardial cells,[12],did not cause cell death
"IL4: interleukin-4, cytokine added to cultured cells (protein, UniProt P05112 25-153, looked up) Interleukin-4: HKCDITLQEIIKTLNSLTEQKTLCTELTVTDIFAASKNTTEKETFCRAATVLRQFYSHHEKDTRCLGATAQQFHRHKQLIRFLKRLDRNLWGLAGLNSCPVKEANQSTLENFLERLKTIMREKYSKCSS","expression levels of genes (Ctgf, Col1a, and Col3a)",[7],the same as those in the non-administration group
same,phosphorylation of Stat6,[9],increased in a dose-dependent manner
same,expression levels of Angpt1,[10],not increased
same,"phosphorylation of Stat1 by αGalCer/DC observed in myocardial tissues, reproduction in cultured myocardial cells",[11],reproduced
"IL10: interleukin-10, cytokine added to cultured cells (protein, UniProt P22301 19-178, looked up) Interleukin-10: SPGQGTQSENSCTHFPGNLPNMLRDLRDAFSRVKTFFQMKDQLDNLLLKESLLEDFKGYLGCQALSEMIQFYLEEVMPQAENQDPDIKAHVNSLGENLKTLRLRLRRCHRFLPCENKSKAVEQVKNAFNKLQEKGIYKAMSEFDIFINYIEAYMTMKIRN","expression levels of genes (Ctgf, Col1a, and Col3a)",[7],the same as those in the non-administration group
same,phosphorylation of Stat6,[9],not found
same,expression levels of Angpt1,[10],not increased
same,"phosphorylation of Stat1 by αGalCer/DC observed in myocardial tissues, reproduction in cultured myocardial cells",[11],not reproduced

# — patent US20220273709A1, “DEVELOPMENT OF THERAPY FOR IMPROVING MYOCARDIAL CONTRACTION AND METHOD FOR INHIBITING CARDIOMYOCYTE DEATH” (KYUSHU UNIVERSITY, NATIONAL UNIVERSITY CORPORATION, priority 2019, published 2022)
